The text below walks through data of patent US12612407B2, “Imidazo[2,1-f][1,2,4]triazin-4-amine derivatives as TLR7 agonist” (BEIGENE, LTD., priority 2020, dated 2026).

Some results are limits rather than exact numbers.

The target of experiment [1] is T1, human TLR7 (Homo sapiens, UniProt Q9NYK1).
T1 construct: host or cells: HEK293 (HEK-Blue hTLR7)
T1 sequence (Q9NYK1 27-1049): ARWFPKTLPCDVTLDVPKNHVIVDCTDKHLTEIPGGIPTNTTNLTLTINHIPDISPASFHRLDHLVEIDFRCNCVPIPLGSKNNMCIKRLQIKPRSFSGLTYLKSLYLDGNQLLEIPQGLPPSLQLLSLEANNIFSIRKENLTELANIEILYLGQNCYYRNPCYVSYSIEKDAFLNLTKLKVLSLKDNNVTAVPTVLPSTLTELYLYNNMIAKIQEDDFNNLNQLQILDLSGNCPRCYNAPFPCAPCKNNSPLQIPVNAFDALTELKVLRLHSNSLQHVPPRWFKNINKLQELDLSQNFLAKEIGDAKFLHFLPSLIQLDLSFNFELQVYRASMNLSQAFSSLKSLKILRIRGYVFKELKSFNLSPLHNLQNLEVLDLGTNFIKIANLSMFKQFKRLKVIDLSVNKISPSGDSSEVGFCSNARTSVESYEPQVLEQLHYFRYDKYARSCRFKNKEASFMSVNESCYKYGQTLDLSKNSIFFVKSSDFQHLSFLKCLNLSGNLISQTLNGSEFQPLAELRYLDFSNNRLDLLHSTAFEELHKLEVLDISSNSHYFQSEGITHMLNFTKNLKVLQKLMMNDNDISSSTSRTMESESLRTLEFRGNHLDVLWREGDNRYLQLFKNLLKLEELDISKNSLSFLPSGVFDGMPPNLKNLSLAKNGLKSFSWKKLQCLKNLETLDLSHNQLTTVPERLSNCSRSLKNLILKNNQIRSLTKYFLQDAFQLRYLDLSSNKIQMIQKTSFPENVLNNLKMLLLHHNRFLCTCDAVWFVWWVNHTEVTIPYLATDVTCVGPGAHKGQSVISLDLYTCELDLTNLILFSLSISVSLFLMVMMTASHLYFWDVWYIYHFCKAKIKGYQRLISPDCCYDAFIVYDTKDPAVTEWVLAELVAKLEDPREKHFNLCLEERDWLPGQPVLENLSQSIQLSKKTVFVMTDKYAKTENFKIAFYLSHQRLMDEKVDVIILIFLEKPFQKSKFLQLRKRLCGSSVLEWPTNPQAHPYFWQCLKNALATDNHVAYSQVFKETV
Kind of experiment: TLR7 Stimulation Determined Using HEK-Blue Detection. It is filed as cell-based. The settings on record: HEK-Blue hTLR7 cells, 16 hr, percentages of maximum activation with Resiquimod, Table 1, B233-B247. The source says: TLR7 Stimulation Determined Using HEK-Blue Detection
(§1) This assay was designed for studying the stimulation of human TLR7 protein in HEK-Blue hTLR7 tool cell line by monitoring the activation of NF-κB. HEK-Blue hTLR7 cells were obtained by co-transfection of the hTLR7 gene and an optimized secreted embryonic alkaline phosphatase (SEAP) reporter gene into HEK293 cells. The SEAP reporter gene was placed under the control of the IFN-β minimal promoter fused to five NF-κB and AP-1-binding sites. Stimulation with a TLR7 ligand activates NF-κB and AP-1 which induce the expression of SEAP. Levels of SEAP can be easily determined with HEK-Blue Detection, a cell culture medium that allows for real-time detection of SEAP. HEK-Blue Detection contains all the nutrients necessary for cell growth and a specific SEAP color substrate. The hydrolysis of the substrate by SEAP produces a purple/blue color that can be measured with a spectrophotometer.
When growing to 50-80% confluency, HEK-Blue hTLR7 cells were plated into 96-well plate (costar 3599) at a density of 40000 cells/well. Then compounds were added with serial dilutions over 10 points with a 0.04 nM-10 μM final concentration range in 0.1% DMSO/HEK-Blue Detection. The plates were then incubated for 16 hr at 37° C. in 5% CO2 and vortex for 30 s before measurement. The optical density at 620-655 nm was read on BMG PHERAstar FSX instrument. The EC50 for each compound was determined by calculating the percentages of the maximum activation identified with Resiquimod.

Experiment [2] concerns the target T2, human TLR 8 protein (Homo sapiens, UniProt Q9NR97).
T2 construct: expressed in transfected cells; host or cells: HEK293 (HEK-Blue hTLR8)
T2 sequence (Q9NR97 27-1041): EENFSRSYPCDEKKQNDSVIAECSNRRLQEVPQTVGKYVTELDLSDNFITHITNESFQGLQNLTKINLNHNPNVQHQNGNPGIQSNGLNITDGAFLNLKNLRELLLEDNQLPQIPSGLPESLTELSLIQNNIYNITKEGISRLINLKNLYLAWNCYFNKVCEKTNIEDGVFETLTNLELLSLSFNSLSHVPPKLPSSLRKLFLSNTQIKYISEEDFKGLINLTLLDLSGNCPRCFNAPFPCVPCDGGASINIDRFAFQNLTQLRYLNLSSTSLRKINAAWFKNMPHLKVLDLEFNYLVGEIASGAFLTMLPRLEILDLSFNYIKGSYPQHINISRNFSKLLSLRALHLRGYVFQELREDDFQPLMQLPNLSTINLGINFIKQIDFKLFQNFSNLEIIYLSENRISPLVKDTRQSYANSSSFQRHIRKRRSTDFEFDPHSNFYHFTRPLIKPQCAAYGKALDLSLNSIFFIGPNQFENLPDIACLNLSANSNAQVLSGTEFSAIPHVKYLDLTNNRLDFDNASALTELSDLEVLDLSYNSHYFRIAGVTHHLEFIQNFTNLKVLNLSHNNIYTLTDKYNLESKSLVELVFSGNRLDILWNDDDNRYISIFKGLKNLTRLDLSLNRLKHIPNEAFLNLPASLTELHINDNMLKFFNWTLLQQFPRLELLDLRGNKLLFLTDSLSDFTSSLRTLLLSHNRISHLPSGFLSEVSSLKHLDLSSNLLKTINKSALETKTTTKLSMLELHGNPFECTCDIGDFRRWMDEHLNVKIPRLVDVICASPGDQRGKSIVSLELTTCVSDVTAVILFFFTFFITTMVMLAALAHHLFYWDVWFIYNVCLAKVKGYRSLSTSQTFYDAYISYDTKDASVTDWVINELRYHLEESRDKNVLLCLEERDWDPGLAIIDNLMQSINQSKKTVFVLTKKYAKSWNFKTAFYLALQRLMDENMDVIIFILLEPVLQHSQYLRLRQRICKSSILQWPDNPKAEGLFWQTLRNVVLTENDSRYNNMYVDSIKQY
In words: TLR8 Stimulation determined using HEK-Blue Detection. It is filed as cell-based. The conditions noted are these: HEK-Blue hTLR8 cells, 16 hr, percentages of maximum activation with Resiquimod or Motolimod, Table 3.
Source text: TLR8 Stimulation determined using HEK-Blue Detection
as §1, with “TLR 8” for “TLR7”, “hTLR8” for “hTLR7”
When growing to 50-80% confluency, HEK-Blue hTLR7/8 cells were plated into 96-well plate (costar 3599) at a density of 40000 cells/well. Then compounds were added with serial dilutions over 10 points with a 1 nM-10 uM final concentration range in 0.1% DMSO/HEK-Blue Detection. The plates were then incubated for 16 hr at 37° C. in 5% CO2. The optical density at 620-655 nm was read on BMG PHERAstar FSX instrument. The EC50 for each compound was determined by calculating the percentages of the maximum activation identified with Resiquimod or Motolimod.

Take `CCC[C@H](C)Oc1nc(N)c2ncc(Cc3cnc(N4CCNCC4)c(OC)c3)n2n1` [Compound B241, (S)-7-((5-methoxy-6-(piperazin-1-yl)pyridin-3-yl)methyl)-2-(pentan-2-yloxy)imidazo[2,1-f][1,2,4]triazin-4-amine]: the EC50 was 5.5 nM in experiment [1] and 445 nM in experiment [2].
Regarding `CCCC(C)Oc1nc(N)c2ncc(Cc3ccc(C4CCNCC4)nc3F)n2n1` (stereo not drawn) [Compound B238, 7-((2-fluoro-6-(piperidin-4-yl)pyridin-3-yl)methyl)-2-(pentan-2-yloxy)imidazo[2,1-f][1,2,4]triazin-4-amine], the 50% effective concentration (EC50) was 6.7 nM in experiment [1] and 169 nM in experiment [2].
As to `CCC[C@H](C)Nc1nc(N)c2ncc(Cc3cnc(C4CCNCC4)c(C)c3)n2n1` [Compound B240, (S)-7-((5-methyl-6-(piperidin-4-yl)pyridin-3-yl)methyl)-N2-(pentan-2-yl)imidazo[2,1-f][1,2,4]triazine-2,4-diamine], the values for the EC50 in experiment [1] and in experiment [2] were 1 nM and 1510 nM, respectively.
The like results for `CCCC(CO)Oc1nc(N)c2ncc(Cc3cnc(N4CCC(CNC)CC4)c(C)c3)n2n1` (stereo not drawn) [Compound B235, 2-((4-amino-7-((5-methyl-6-(4-((methylamino)methyl)piperidin-1-yl)pyridin-3-yl)methyl)imidazo[2,1-f][1,2,4]triazin-2-yl)oxy)pentan-1-ol] were, in that order, 63 nM and 3630 nM.
In the case of `CCC[C@H](C)Nc1nc(N)c2ncc(Cc3cnc(N4CCN(CCO)CC4)c(C)c3)n2n1` [Compound B247, (S)-2-(4-(5-((4-amino-2-(pentan-2-ylamino)imidazo[2,1-f][1,2,4]triazin-7-yl)methyl)-3-methylpyridin-2-yl)piperazin-1-yl)ethan-1-ol], the figures for the EC50 in experiment [1] and in experiment [2] were 0.6 nM and above 10000 nM, respectively.
As to `CCC[C@H](C)Oc1nc(N)c2ncc(Cc3ccn(C4CCNCC4)c(=O)c3)n2n1` [Compound B243, (S)-4-((4-amino-2-(pentan-2-yloxy)imidazo[2,1-f][1,2,4]triazin-7-yl)methyl)-1-(piperidin-4-yl)pyridin-2(1H)-one], the results for the EC50 in experiment [1] and in experiment [2] were 35 nM and 365 nM, respectively.
For the compound `CCC[C@H](C)Nc1nc(N)c2ncc(Cc3cnc(N4CCC(CN(C)CCNC)CC4)c(C)c3)n2n1` [Compound B245, (S)-7-((5-methyl-6-(4-((methyl(2-(methylamino)ethyl)amino)methyl)piperidin-1-yl)pyridin-3-yl)methyl)-N2-(pentan-2-yl)imidazo[2,1-f][1,2,4]triazine-2,4-diamine], the EC50 in experiment [1] came out at 2.5 nM; in experiment [2], 485 nM.
Turning to `CCCC(O)COc1nc(N)c2ncc(Cc3cnc(N4CCC(CNC)CC4)c(C)c3)n2n1` (stereo not drawn) [Compound B236, 1-((4-amino-7-((5-methyl-6-(4-((methylamino)methyl)piperidin-1-yl)pyridin-3-yl)methyl)imidazo[2,1-f][1,2,4]triazin-2-yl)oxy)pentan-2-ol], the EC50 in experiment [1] was 648 nM; in experiment [2] it was above 10000 nM.
`CCCC(CCO)Oc1nc(N)c2ncc(Cc3ccc(C4CCNCC4)nc3F)n2n1` (stereo not drawn) [Compound B242, 3-((4-amino-7-((2-fluoro-6-(piperidin-4-yl)pyridin-3 yl)methyl)imidazo[2,1-f][1,2,4]triazin-2-yl)oxy)hexan-1-ol]: the concentration giving a half-maximal response (EC50) is 9.8 nM in experiment [1] and 74 nM in experiment [2].
In the same order, the values of `CCCC(C)Oc1nc(N)c2ncc(Cc3cnc(N4CCC(CNCC(C)C)CC4)c(C)c3)n2n1` (stereo not drawn) [Compound B234, 7-((6-(4-((isobutylamino)methyl)piperidin-1-yl)-5-methylpyridin-3-yl)methyl)-2-(pentan-2-yloxy)imidazo[2,1-f][1,2,4]triazin-4-amine] are 5.3 nM and 451 nM.
Regarding `CCC[C@H](C)Nc1nc(N)c2ncc(Cc3cnc(N4CCN(C(=O)CN(C)CCNC)CC4)c(C)c3)n2n1` [Compound B244, (S)-1-(4-(5-((4-amino-2-(pentan-2-ylamino)imidazo[2,1-f][1,2,4]triazin-7-yl)methyl)-3-methylpyridin-2-yl)piperazin-1-yl)-2-(methyl(2-(methylamino)ethyl)amino)ethan-1-one], the values for the EC50 in experiment [1] and in experiment [2] were 12 nM and above 10000 nM, respectively.
For `CCC[C@H](C)Nc1nc(N)c2ncc(Cc3cnc(N4CCN(C(=O)CN)CC4)c(C)c3)n2n1` [Compound B246, (S)-2-amino-1-(4-(5-((4-amino-2-(pentan-2-ylamino)imidazo[2,1-f][1,2,4]triazin-7-yl)methyl)-3-methylpyridin-2-yl)piperazin-1-yl)ethan-1-one], the EC50 was 10.9 nM in experiment [1] and above 10000 nM in experiment [2].

For orientation: EC50 means the concentration that produces a half-maximal response. High values mean lower potency in that assay, low ones higher potency in that assay.
